In patent publication US7034056B2, “Aryl and biaryl compounds having MCH modulatory activity” (Pharmacopeia Drug Discovery, inc., priority 2001, dated 2006):

Target: T1, hMCHR (MCH receptor) (Homo sapiens, UniProt Q99705)
T1 construct: (or internally produced); host or cells: CHO (Chinese hamster ovary) cells, membrane preparation
Test: MCH Assay PCOP Protocol ([125I]-MCH SPA binding to hMCHR-CHO membranes);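 on Activity (Ki range): A 0.4–50 nM B 51–500 nM C 501–2500 nM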
Settings: [125I]-MCH 0.5 nM, hMCHR-CHO membranes; read-out: Activity (ranges of Ki values)
Outline: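 SPA binding with 10 μg hMCHR-CHO membranes and WGA-SPA beads in 25 mM HEPES pH 7.4, 10 mM NaCl, 10 mM MgCl2, 5 mM MnCl2, 0.1% BSA.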

T1 sequence (Q99705 whole entry): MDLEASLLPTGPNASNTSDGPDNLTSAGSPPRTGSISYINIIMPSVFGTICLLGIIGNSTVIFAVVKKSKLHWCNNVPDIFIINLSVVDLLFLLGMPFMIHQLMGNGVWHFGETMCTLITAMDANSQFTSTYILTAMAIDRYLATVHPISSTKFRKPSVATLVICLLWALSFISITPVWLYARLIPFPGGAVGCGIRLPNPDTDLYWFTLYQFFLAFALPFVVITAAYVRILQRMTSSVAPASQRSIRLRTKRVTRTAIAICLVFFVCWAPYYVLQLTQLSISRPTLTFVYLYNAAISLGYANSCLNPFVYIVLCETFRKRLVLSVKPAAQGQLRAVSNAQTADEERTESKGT

CNCCC(CNC(=O)Nc1ccc(Cl)cc1)c1ccc(-c2cccc(C#N)c2)cc1 (stereo not shown) [Example 64] and N#Cc1cccc(-c2ccc(C(CCNC3CC3)CNC(=O)Nc3ccccc3)cc2)c1 (stereo not shown) [Example 58] fall in the same range of Ki: 0.4 to 50 nM for the first, 0.4 to 50 nM for the second.

O=C(NCC(CCN1CCC(NC(=O)c2cccs2)CC1)c1ccc(Cl)cc1)Nc1cc(Cl)cc(Cl)c1 (stereo not shown) [Example 216] and Cc1ccc(C(CCN2CCC(NC(=O)c3ccno3)C2)CNC(=O)Nc2cc(Cl)cc(Cl)c2)cc1 (stereo not shown) [Example 202] fall in the same range of Ki: 501 to 2500 nM for the first, 501 to 2500 nM for the second.

Cc1ccc(C(CCNC2CCCC2)CNC(=O)Nc2cc(C(F)(F)F)cc(C(F)(F)F)c2)cc1C (stereo not shown) [Example 109] and O=C(NCC(CCNC1CCCC1)c1ccc(Cl)cc1)Nc1cc(C(F)(F)F)cc(C(F)(F)F)c1 (stereo not shown) [Example 108] fall in the same range of Ki: 51 to 500 nM for the first, 51 to 500 nM for the second.

Cc1ccc(C(CCNCCCN(C)C)CNC(=O)Nc2cc(Cl)cc(Cl)c2)cc1C (stereo not shown) [Example 118] and Cc1ccc(-c2cccc(C(CCNCCCN(C)C)CNC(=O)Nc3cc(Cl)cc(Cl)c3)c2)cc1 (stereo not shown) [Example 162] fall in the same range of Ki: 501 to 2500 nM for the first, 501 to 2500 nM for the second.

CN(C)CCCNCCC(C)(CNC(=O)Nc1ccc(F)c(F)c1)c1ccc(Cl)c(Cl)c1 (stereo not shown) [Example 119] and CN(C)CCCNCCC(CNC(=O)Nc1cc(Cl)cc(Cl)c1)c1cccc(-c2ccc(F)c(Cl)c2)c1 (stereo not shown) [Example 170] fall in the same range of Ki: 501 to 2500 nM for the first, 501 to 2500 nM for the second.

First: COc1ccccc1-c1cccc(C(CCNCCCN(C)C)CNC(=O)Nc2cc(Cl)cc(Cl)c2)c1 (stereo not shown) [Example 174]
Second: O=C(NCC(CCNC1CCCC1)c1cccc(-c2cccc(F)c2)c1)Nc1cc(Cl)cc(Cl)c1 (stereo not shown) [Example 156]
The Ki of the first is higher: 501 to 2500 nM for the first, 51 to 500 nM for the second. The second binds more tightly here.

COc1cc(CNCCC(CNC(=O)Nc2cccc(C(F)(F)F)c2)c2ccc(Cl)c(Cl)c2)cc(OC)c1OC (stereo not shown) [Example 132] and O=C(NCC(CCNC1CCCC1)c1cccc(-c2ccc(F)c(Cl)c2)c1)Nc1cc(Cl)cc(Cl)c1 (stereo not shown) [Example 159] fall in the same range of Ki: 51 to 500 nM for the first, 51 to 500 nM for the second.

First: CC(=O)NC1CCN(CCC(CNC(=O)Nc2cc(Cl)cc(Cl)c2)c2ccc(Cl)c(Cl)c2)C1 (stereo not shown) [Example 210]
Second: Cc1ccc(C(CCNC2CCCC2)CNC(=O)Nc2ccc(Cl)c(Cl)c2)cc1 (stereo not shown) [Example 127]
The Ki of the first is higher: 501 to 2500 nM for the first, 51 to 500 nM for the second. The second binds more tightly here.

With CN(C)CCCNCCC(CNC(=O)Nc1ccc(Cl)c([N+](=O)[O-])c1)c1ccc2c(c1)OCO2 (stereo not shown) [Example 120] the Ki was 501 to 2500 nM.

Same assay, conditions: [125I]-MCH SPA binding, hMCHR-CHO membranes; Ki class ranges; read-out: Activity (range of Ki)

First: O=C(NCC(CCN1CCCC1CN1CCCC1)c1ccc(Cl)c(Cl)c1)Nc1cc(C(F)(F)F)cc(C(F)(F)F)c1 (stereo not shown) [Example 430]
Second: O=C(NCC(CCN1CCCC1)c1ccc(Cl)c(Cl)c1)Nc1cc(C(F)(F)F)cc(C(F)(F)F)c1 (stereo not shown) [Example 422]
The Ki of the first is higher: 501 to 2500 nM for the first, 51 to 500 nM for the second. The second binds more tightly here.

O=C(Cc1ccc(Cl)c(Cl)c1)NCC(CCN1CCC(N2CCCCC2)CC1)c1ccc(Cl)c(Cl)c1 (stereo not shown) [Example 448] and O=C(NCC(CCN1CCC(N2CCCCC2)CC1)c1ccc(Cl)c(Cl)c1)c1cc(Cl)cc(Cl)c1 (stereo not shown) [Example 452] fall in the same range of Ki: 501 to 2500 nM for the first, 501 to 2500 nM for the second.

CS(=O)(=O)c1ccc(CNCCC(CNC(=O)Nc2cc(C(F)(F)F)cc(C(F)(F)F)c2)c2ccc(Cl)c(Cl)c2)cc1 (stereo not shown) [Example 436] and CN(C)CCCNCCC(CNC(=O)Nc1cc(C(F)(F)F)cc(C(F)(F)F)c1)c1ccc(Cl)c(Cl)c1 (stereo not shown) [Example 425] fall in the same range of Ki: 501 to 2500 nM for the first, 501 to 2500 nM for the second.

For CCCCN(CCC(CNC(=O)Nc1cc(C(F)(F)F)cc(C(F)(F)F)c1)c1ccc(Cl)c(Cl)c1)C1CC1 (stereo not shown) [Example 440], the Ki was 501 to 2500 nM.

Same assay, conditions: [125I]-MCH binding to hMCHR-CHO membranes; class symbols for ranges of Ki; read-out: Activity (Ki range)

O=C(NCC(CCNCC1CCCO1)c1ccc(Cl)c(Cl)c1)c1cc(C(F)(F)F)cc(C(F)(F)F)c1 (stereo not shown) [Example 404] and O=C(NCC(CCN1CCCC1)c1ccc(Cl)c(Cl)c1)c1cc(C(F)(F)F)cc(C(F)(F)F)c1 (stereo not shown) [Example 406] fall in the same range of Ki: 501 to 2500 nM for the first, 501 to 2500 nM for the second.

O=S(=O)(NCC(CCNCCc1c[nH]c2ccccc12)c1ccc(Cl)cc1)c1ccc(Cl)c(Cl)c1 (stereo not shown) [Example 342] and O=C(NCC(CCNCCc1c[nH]c2ccccc12)c1ccc(Cl)c(Cl)c1)c1cc(C(F)(F)F)cc(C(F)(F)F)c1 (stereo not shown) [Example 400] fall in the same range of Ki: 501 to 2500 nM for the first, 501 to 2500 nM for the second.

O=C(NCC(CCN1CCC(N2CCCCC2)CC1)c1ccc(Cl)c(Cl)c1)Nc1ccc(OC(F)(F)F)cc1 (stereo not shown) [Example 362] and N#Cc1cccc(NC(=O)NCC(CCN2CCC(N3CCCCC3)CC2)c2ccc(Cl)c(Cl)c2)c1 (stereo not shown) [Example 375] fall in the same range of Ki: 501 to 2500 nM for the first, 501 to 2500 nM for the second.

First: COc1ccc(C(CCNCCCN(C)C)CNC(=O)Nc2cc(C(F)(F)F)cc(C(F)(F)F)c2)cc1 (stereo not shown) [Example 345]
Second: Cc1ccc(C(CCNC2CCCCC2)CNC(=O)Nc2cc(C(F)(F)F)cc(C(F)(F)F)c2)cc1 (stereo not shown) [Example 270]
The Ki of the first is higher: 501 to 2500 nM for the first, 51 to 500 nM for the second. The second binds more tightly here.

CN(C)C1CCN(CCC(CNC(=O)Nc2cc(Cl)cc(Cl)c2)c2ccc(Cl)c(Cl)c2)C1 (stereo not shown) [Example 292] and O=C(NCC(CCNC1CCCC1)c1ccc(Cl)c(Cl)c1)Nc1cc(Cl)cc(Cl)c1 (stereo not shown) [Example 280] fall in the same range of Ki: 51 to 500 nM for the first, 51 to 500 nM for the second.

O=C(NCC(CCN1CCC(N2CCCCC2)CC1)c1ccc(Cl)c(Cl)c1)Nc1ccc(Br)cc1Br (stereo not shown) [Example 359] and O=C(NCC(CCN1CCC(NC(=O)c2ccno2)CC1)c1ccc(Cl)c(Cl)c1)Nc1cc(Cl)cc(Cl)c1 (stereo not shown) [Example 217] fall in the same range of Ki: 501 to 2500 nM for the first, 501 to 2500 nM for the second.

O=C(NCC(CCNC1CCCC1)c1ccc(-c2ccsc2)cc1)Nc1cc(Cl)cc(Cl)c1 (stereo not shown) [Example 229] and O=C(NCC(CCNC1CCCC1)c1ccc(-c2cccs2)cc1)Nc1cc(Cl)cc(Cl)c1 (stereo not shown) [Example 230] fall in the same range of Ki: 51 to 500 nM for the first, 51 to 500 nM for the second.

CCNC(=O)NC1CCN(CCC(CNC(=O)Nc2cc(Cl)cc(Cl)c2)c2ccc(Cl)cc2)C1 (stereo not shown) [Example 321] and Cc1ccc(C(CCNc2c(C)noc2C)CNC(=O)Nc2cc(Cl)cc(Cl)c2)cc1 (stereo not shown) [Example 275] fall in the same range of Ki: 501 to 2500 nM for the first, 501 to 2500 nM for the second.

Cc1cccc(C(CCNCCc2c[nH]c3ccccc23)CNC(=O)Nc2cc(C(F)(F)F)cc(C(F)(F)F)c2)c1 (stereo not shown) [Example 336] and Cc1cccc(C(CCN2CCCC2)CNC(=O)Nc2cc(C(F)(F)F)cc(C(F)(F)F)c2)c1 (stereo not shown) [Example 338] fall in the same range of Ki: 501 to 2500 nM for the first, 501 to 2500 nM for the second.

First: COc1ccc(-c2ccc(C(CCNCCCN(C)C)CNC(=O)Nc3cc(Cl)cc(Cl)c3)cc2)c(OC)c1 (stereo not shown) [Example 239]
Second: COc1cc(-c2ccc(C(CCNCCCN(C)C)CNC(=O)Nc3cc(Cl)cc(Cl)c3)cc2)cc(OC)c1OC (stereo not shown) [Example 257]
The Ki of the first is lower: 51 to 500 nM for the first, 501 to 2500 nM for the second. The first binds more tightly here.

Compared with CCOC(=O)N1CCC(NCCC(CNC(=O)Nc2cccc(C(F)(F)F)c2)c2ccc(Cl)c(Cl)c2)CC1 (stereo not shown) [Example 281], CCOC(=O)N1CCC(NCCC(CNC(=O)Nc2ccc(F)c([N+](=O)[O-])c2)c2ccc(Cl)c(Cl)c2)CC1 (stereo not shown) [Example 264] is higher in Ki: 51 to 500 nM for the first, 501 to 2500 nM for the second. The first binds more tightly here.

CN(C)CCCNCCC(CNC(=O)Nc1cc(Cl)cc(Cl)c1)c1ccc(-c2ccsc2)cc1 (stereo not shown) [Example 235] and CN(C)CCCNCCC(CNC(=O)Nc1cc(Cl)cc(Cl)c1)c1ccc(-c2ccc(O)cc2)cc1 (stereo not shown) [Example 251] fall in the same range of Ki: 51 to 500 nM for the first, 51 to 500 nM for the second.

O=C(NCC(CCNCc1ccc2c(c1)OCO2)c1ccc(Cl)c(Cl)c1)Nc1cc(C(F)(F)F)cc(C(F)(F)F)c1 (stereo not shown) [Example 319] and O=C(NCc1cc(C(F)(F)F)cc(C(F)(F)F)c1)C(CCN1CCC(O)(c2ccc(Cl)cc2)CC1)c1ccc(Cl)c(Cl)c1 (stereo not shown) [Example 390] fall in the same range of Ki: 501 to 2500 nM for the first, 501 to 2500 nM for the second.

O=C(NCC(CCN1CCC(CNC2(CO)CCCC2)CC1)c1ccc(Cl)c(Cl)c1)c1cc(C(F)(F)F)cc(C(F)(F)F)c1 (stereo not shown) [Example 416] and O=S(=O)(NCC(CCN1CCCC1)c1cccc(Cl)c1)c1ccc(Cl)c(Cl)c1 (stereo not shown) [Example 349] fall in the same range of Ki: 501 to 2500 nM for the first, 501 to 2500 nM for the second.
